“Also recorded” adds a separate entry of the source. Where two headings read alike, the source gives them in different places.
How the values were obtained:
recombinant PDK-1 = molecular target: T1, recombinant PDK-1 (Homo sapiens, UniProt O15530); assay: PDK-1 kinase activity (Upstate kit, SGK-coupled, cell-free); assay type: biochemical; settings: ratio of IC50 values
T1 construct: purchased Upstate (Lake Placid, N.Y.)
T1 sequence (O15530 1-556): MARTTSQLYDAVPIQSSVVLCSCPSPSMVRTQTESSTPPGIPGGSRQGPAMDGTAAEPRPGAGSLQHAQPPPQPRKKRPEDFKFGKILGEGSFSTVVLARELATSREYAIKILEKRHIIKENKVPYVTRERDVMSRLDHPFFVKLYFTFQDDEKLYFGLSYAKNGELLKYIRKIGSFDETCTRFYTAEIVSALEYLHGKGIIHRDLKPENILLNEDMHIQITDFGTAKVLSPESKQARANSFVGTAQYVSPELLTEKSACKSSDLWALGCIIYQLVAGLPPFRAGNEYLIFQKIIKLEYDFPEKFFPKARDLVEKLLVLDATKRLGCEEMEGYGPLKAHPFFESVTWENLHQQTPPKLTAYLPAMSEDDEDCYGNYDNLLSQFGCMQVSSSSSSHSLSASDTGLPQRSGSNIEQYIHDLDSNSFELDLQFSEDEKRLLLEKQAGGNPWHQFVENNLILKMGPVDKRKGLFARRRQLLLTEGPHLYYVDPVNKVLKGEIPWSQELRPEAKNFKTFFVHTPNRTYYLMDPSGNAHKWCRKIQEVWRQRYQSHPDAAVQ
Protocol: PDK-1 kinase activity This in vitro assay was performed using a PDK-1 kinase assay kit (Upstate, Lake Placid, N.Y.) according to the vendor's instructions. This cell-free assay is based on the ability of recombinant PDK-1, in the presence of DMSO vehicle or the test agent, to activate its downstream kinase serum- and glucocorticoid-regulated kinase (SGK.) which, in turn, phosphorylates the Akt/SGK-specific peptide substrate RPRAATF with [γ-^32]-ATP. […] The reported values represent the means of two independent determinations.

immunoprecipitated Akt = assay: Direct inhibition of immunoprecipitated Akt kinase activity; assay type: biochemical, human
[1] = test system: sixty human tumor cell lines; assay: NCI DTP sixty cell line assay, means over the panel; assay type: cell-based
Protocol: (§1) Screening of compounds 70 and 71 against several cancer cell lines The human tumor cell lines of the cancer screening panel are grown in RPMI 1640 medium containing 5% fetal bovine serum and 2 mM L-glutamine. For a typical screening experiment, cells are inoculated into 96 well microtiter plates in 100 μL at plating densities ranging from 5,000 to 40,000 cells/well depending on the doubling time of individual cell lines. After cell inoculation, the microtiter plates are incubated at 37° C., 5% CO2, 95% air and 100% relative humidity for 24 h prior to addition of experimental drugs.
(§2) After 24 h, two plates of each cell line are fixed in situ with TCA, to represent a measurement of the cell population for each cell line at the time of drug addition (Tz). Experimental drugs are solubilized in dimethyl sulfoxide at 400-fold the desired final maximum test concentration and stored frozen prior to use. At the time of drug addition, an aliquot of frozen concentrate is thawed and diluted to twice the desired final maximum test concentration with complete medium containing 50 μg/ml gentamicin. Additional four, 10-fold or ½ log serial dilutions are made to provide a total of five drug concentrations plus control. Aliquots of 100 μl of these different drug dilutions are added to the appropriate microtiter wells already containing 100 μl of medium, resulting in the required final drug concentrations.
(§3) Following drug addition, the plates are incubated for an additional 48 h at 37° C., 5% CO2, 95% air, and 100% relative humidity. For adherent cells, the assay is terminated by the addition of cold TCA. Cells are fixed in situ by the gentle addition of 50 μl of cold 50% (w/v) TCA (final concentration, 10% TCA) and incubated for 60 minutes at 4° C. The supernatant is discarded, and the plates are washed five times with tap water and air dried. Sulforhodamine B (SRB) solution (100 μl) at 0.4% (w/v) in 1% acetic acid is added to each well, and plates are incubated for 10 minutes at room temperature. After staining, unbound dye is removed by washing five times with 1% acetic acid and the plates are air dried. Bound stain is subsequently solubilized with 10 mM trizma base, and the absorbance is read on an automated plate reader at a wavelength of 515 nm. For suspension cells, the methodology is the same except that the assay is terminated by fixing settled cells at the bottom of the wells by gently adding 50 μl of 80% TCA (final concentration, 16% TCA). Using the seven absorbance measurements [time zero, (Tz), control growth, (C), and test growth in the presence of drug at the five concentration levels (Ti)], the percentage growth is calculated at each of the drug concentrations levels. Percentage growth inhibition is calculated as: [(Ti−Tz)/(C−Tz)]×100 for concentrations for which Ti>/=Tz [(Ti−Tz)/Tz]×100 for concentrations for which Ti<Tz
(§4) Three dose response parameters are calculated for each experimental agent. […] The drug concentration resulting in total growth inhibition (TGI) is calculated from Ti=Tz. […] Values are calculated for each of these three parameters if the level of activity is reached; however, if the effect is not reached or is exceeded, the value for that parameter is expressed as greater or less than the maximum or minimum concentration tested.

NCI-H322M = assay: NCI DTP screen (SRB), Non-Small Cell Lung Cancer; assay type: cell-based; settings: NCI-H322H
Protocol: as §1, §2, §3, §4

U251 = assay: NCI DTP screen (SRB), CNS Cancer; assay type: cell-based, human; settings: Log10 Concentration −4.0
Protocol: as §1, with “drugs. […]” for “drugs.”
Following drug addition, the plates are incubated for an additional 48 h at 37° C., 5% CO2, 95% air, and 100% relative humidity. […] Bound stain is subsequently solubilized with 10 mM trizma base, and the absorbance is read on an automated plate reader at a wavelength of 515 nm. […] Using the seven absorbance measurements [time zero, (Tz), control growth, (C), and test growth in the presence of drug at the five concentration levels (Ti)], the percentage growth is calculated at each of the drug concentrations levels. Percentage growth inhibition is calculated as: [(Ti−Tz)/(C−Tz)]×100 for concentrations for which Ti>/=Tz [(Ti−Tz)/Tz]×100 for concentrations for which Ti<Tz
Three dose response parameters are calculated for each experimental agent. […]

LOX IMVI = assay: NCI DTP screen (SRB), Melanoma; assay type: cell-based; settings: LOX IKVI
Protocol: as §1, §2, §3, §4

MALNE-3M = assay: NCI DTP screen (SRB), Melanoma; assay type: cell-based; settings: MALME-3M
RXP 393 = assay: NCI DTP screen (SRB), Renal Cancer; assay type: cell-based, human
Protocol: as §1, §2, §3, §4

UO-31 = assay: NCI DTP screen (SRB), Renal Cancer; assay type: cell-based, human; settings: UD-31
Protocol: as §1, §2, §3, §4

MCP7 = assay: NCI DTP screen (SRB), Breast Cancer; assay type: cell-based, human; settings: MCF7
Protocol: as §1, §2, §3, §4

HS 57BT = assay: NCI DTP screen (SRB), Breast Cancer; assay type: cell-based; settings: HS S78T
Protocol: as §1, §2, §3, §4

[2] = in vivo
[3] = Preliminary animal studies, daily oral administration; settings: daily oral administration for one month; data not shown
PC-3 cells [4] = assay: Cell viability analysis (MTT) in PC-3 cells; assay type: cell-based, human
Protocol: (§5) Cell Culture PC-3 (p53−/−) human androgen-nonresponsive prostate cancer cells were purchased from the American […] (Manassas, Va.). Cells were cultured in RPMI 1640 medium (Gibco, Grand Island, N.Y.) supplemented with 10% fetal bovine serum (FBS; Gibco) at 37° C. in a humidified incubator containing 5% CO2.
Cell viability analysis The effect of 4-[5-(4-methylphenyl)-3-(trifluoromethyl)-1H-pyrazol-1-yl]benzenesulfonamide and its derivatives on PC-3 cell viability was assessed by using the MTT {[3-(4,5-dimethylthiazol-2-yl)-2,5-diphenyl-2H-tetrazolium bromide]} assay in six replicates. Cells were grown in 10% FBS-supplemented RPMI 1640 medium in 96-well, flat bottomed plates for 24 h, and were exposed to various concentrations of compounds 1-36 dissolved in DMSO (final concentration ≦0.1%) in 1% serum-containing RPMI 1640 medium for different time intervals. Controls received DMSO vehicle at a concentration equal to that in drug-treated cells. The medium was removed, replaced by 200 μl of 0.5 mg/ml of MTT in 10% FBS-containing RPMI-1640 medium, and cells were incubated in the CO2 incubator at 37° C. for 2 h. Supernatants were removed from the wells, and the reduced MTT dye was solubilized in 200 μL/well DMSO. Absorbance at 570 nm was determined on a plate reader.

PC-3 cells [5] = assay: Cell proliferation (Coulter counter) in PC-3 cells; assay type: cell-based, human; settings: 1 μM; 10% FBS-supplemented RPMI 1640 medium
Protocol: as §5
Cell proliferation PC-3 cells were seeded into six-well plates at 50,000 cells/well in 10% FBS-containing RPMI 1640 medium. Following a 24 h attachment period, cells were treated in triplicate with the indicated concentration of compounds 1-36 or DMSO vehicle in 10% FBS-containing RPMI-1640 medium. At different time intervals, cells were harvested by trypsinization, and numerated using a Coulter counter model Z1 D/T (Beckman Coulter, Fullerton, Calif.).

Akt = assay: Immunoprecipitated Akt kinase assay from drug-treated PC-3 cells (intracellular Akt activation); assay type: cell-based, human; settings: PC-3 cells treated 2 h, read-out: IC50 for inhibiting intracellular Akt activation
Protocol: Immunoprecipitated Akt kinase assay Akt immunoprecipitation was carried out according to a modified, published procedure. PC-3 cells were treated with DMSO vehicle or the test agents at the indicated concentrations for 2 h and then lysed at 4° C for 1 h in buffer A containing 50 mM Tris-HCl, pH 7.5, 1% Triton X-100, 1 mM EDTA, 1 mM EGTA, 50 mM sodium fluoride, 10 mM sodium β-glycerophosphate. 0.1% 2-mercaptoethanol, 0.1 mM phenylmethylsulfonyl fluoride, and 1 μg/mL each of aprotinin, pepstatin, and leupeptin. Cell lysates were centrifuged at 10,000 g for 5 min, and the supernatant was treated with anti-Akt at 4° C. for 60 min., followed by protein G-agarose beads for additional 60 min. The immunoprecipitate was used to analyze Akt kinase activity by using the Akt/SGK-specific peptide substrate RPRAATF as described above. Values represented the means of two independent determinations.

phospho-473Ser Akt = assay: Western blot of Akt and phospho-Akt in PC-3 cells; assay type: cell-based, human; settings: 5 μM and above, 2 h
Protocol: Immunoblotting. The general procedure for the Western blot analysis of Akt and phospho-Akt is described as follows. Cells were washed in PBS, resuspended in SDS sample buffer sonicated by an ultrasonic sonicator for 5 sec, and boiled for 5 min. After brief centrifugation, equivalent protein concentrations from the soluble fractions were resolved in 10% SDS-polyacrylamide gels on a Minigel apparatus, and transferred to a nitrocellulose membrane using a semi-dry transfer cell. The transblotted membrane was washed three times with TBS containing 0.05% Tween 20 (TBST). After blocking with TBST containing 5% nonfat milk for 60 min., the membrane was incubated with the primary antibody at 1:1,000 dilution in TBST-5% low fat milk at 4° C. for 12 h, and was then washed three times with TBST. The membrane was probed with goat anti-rabbit IgG-HRP conjugates (1:1,000) for 1 h at room temperature, and was washed with TBST three times. The immunoblots were visualized by enhanced chemiluminescence.

N=C(N)Nc1ccc(-n2nc(C(F)(F)F)cc2-c2ccc3c(ccc4ccccc43)c2)cc1 [Compound 71, 4-[5-(2-Phenanthrenyl)-3-(trifluoromethyl)-1H-pyrazol-1-yl]-phenyl-guanidine]
increase in PDK-1 inhibition potency over compound 59 (recombinant PDK-1): five-fold
direct inhibitory effect on immunoprecipitated Akt kinase activity (immunoprecipitated Akt): no appreciable direct inhibition
range in which cell growth is completely suppressed in a diverse range of tumor cell lines [1]: 3 to 5 µM
concentration at which many cell lines respond to the growth inhibitory effect ([1]; two-day exposure, 5% FBS-containing medium): ≥ 0.1 µM
GI50 ([1]; two-day treatment, serum-containing medium, read-out: mean GI50 among the sixty cell lines): 1.3 µM
Percent Growth (NCI-H322M; Log10 Concentration −4.0): −59%
Percent Growth (NCI-H322M; Log10 Concentration −5.0): −100%
Percent Growth (U251): −12%
Percent Growth (LOX IMVI; Log10 Concentration −4.0): −53%
Percent Growth (LOX IMVI; Log10 Concentration −5.0): −98%
Percent Growth (MALNE-3M; Log10 Concentration −4.0): −50%
Percent Growth (MALNE-3M; Log10 Concentration −5.0): −87%
Percent Growth (RXP 393; Log10 Concentration −4.0): −4%
Percent Growth (RXP 393; Log10 Concentration −5.0): −61%
Percent Growth (UO-31; Log10 Concentration −4.0): −35%
Percent Growth (UO-31; Log10 Concentration −5.0): −100%
Percent Growth (MCP7; Log10 Concentration −4.0): −49%
Percent Growth (MCP7; Log10 Concentration −5.0): −84%
Percent Growth (HS 57BT; Log10 Concentration −4.0): −38%
Percent Growth (HS 57BT; Log10 Concentration −5.0): −69%
oral absorption [2]: can be orally absorbed
average serum concentrations relative to TGI ([2]; po): average serum concentrations several-fold higher than TGI
toxicity to the animals [3]: little toxicity

4-[5-(2-phenanthrenyl)-3-(trifluoromethyl)-1H-1-yl]benzenesulfonamide [Compound 59]
improvement of IC50 values (PDK-1 and PC-3) over the comparative compound (recombinant PDK-1): five- to six-fold
IC50 (PC-3 cells [4]; 24 h, 1% FBS-containing RPMI 1640 medium, read-out: dose required to induce 50% PC-3 cell death): 5 µM
IC50 (PC-3 cells [4]; inducing apoptotic death in PC-3 cells / PC-3 cell viability, read-out: IC50 PC-3): 5 µM
anti-proliferative activity on PC-3 cell proliferation (PC-3 cells [5]): substantial anti-proliferative activity
IC50 (Akt): 5 µM
Akt dephosphorylation (Western blot) (phospho-473Ser Akt): significant Akt dephosphorylation
direct inhibitory effect on immunoprecipitated Akt kinase activity (immunoprecipitated Akt): Neither compound 59 nor other the other compounds displayed a direct inhibitory effect; also recorded: no appreciable direct inhibition
